Converted amounts (≈) assume the structure as drawn. Counter-ions that a name gives are not always drawn. Like-named read-outs stand apart in the source and are kept apart here.
How the values were obtained:
M. morganii T-216 = assay: MIC, agar dilution, standard method of Japan Society of Chemotherapy; type: cell-based; details: Morganella morganii, T216, Heart Infusion agar, 37° C., 20 hours, 10^4 cells/plate (10^6 cells/ml)
Method: (§1) According to the standard method of Japan Society of Chemotherapy [CHEMOTHERAPY, 29 (1), 76-79 (1981)], a bacteria solution obtained by culturing in Heart Infusion broth (manufactured by Eiken Kagaku) at 37° C. for 20 hours was inoculated onto a Heart Infusion agar containing a drug and cultured at 37° C. for 20 hours, after which the growth of the bacteria was observed, to determine the minimum concentration at which the growth of the bacteria was inhibited as MIC (μg/ml). The amount of the inoculated bacteria was 10^4 cells/plate (10^6 cells/ml).

P. mirabilis T-111 = assay: as above; type: cell-based; details: Proteus mirabilis, T111, Heart Infusion agar, 37° C., 20 hours, 10^4 cells/plate (10^6 cells/ml)
Method: as §1

E. coli TK-111 = assay: as above; type: cell-based; details: Escherichia coli, TK111, Heart Infusion agar, 37° C., 20 hours, 10^4 cells/plate (10^6 cells/ml)
Method: as §1

E. coli NIHJ = assay: as above; type: cell-based; details: Escherichia coli, Heart Infusion agar, 37° C., 20 hours, 10^4 cells/plate (10^6 cells/ml)
Method: as §1

S. marcescens W-134 = assay: as above; type: cell-based; details: Serratia marcescens, W134, Heart Infusion agar, 37° C., 20 hours, 10^4 cells/plate (10^6 cells/ml)
Method: as §1

C. freundii N-7 = assay: as above; type: cell-based; details: Citrobacter freundii
Method: as §1

K. pneumoniae Y-4* = assay: as above; type: cell-based; details: Klebsiella pneumoniae
Method: as §1
(§2) The asterisk in Table 1 means β-Lactamase-producing bacteria.

P. aeruginosa GN-918* = assay: as above; type: cell-based; details: Pseudomonas aeruginosa
Method: as §1, §2

[1] = Acute toxicity, intravenous, mice; details: mouse, in vivo, ICR strain male mice, 22±1 g, in 0.1N aqueous sodium hydroxide, read-out: 50% lethal dosage (LD50)
Method: A test compound was intravenously administered to a group of three ICR strain male mice each weighing 22±1 g to investigate the acute toxicity.
The test compound was dissolved in a 0.1N aqueous sodium hydroxide solution, and the resulting solution was applied.

[2] = N7, C. freundii N-7, Heart Infusion agar, 37° C., 20 hours, 10^4 cells/plate (10^6 cells/ml), read-out: MIC
[3] = K. pneumoniae Y-4, β-Lactamase-producing, Heart Infusion agar, 37° C., 20 hours, 10^4 cells/plate (10^6 cells/ml), read-out: MIC
[4] = GN918, P. aeruginosa GN-918, β-Lactamase-producing, Heart Infusion agar, 37° C., 20 hours, 10^4 cells/plate (10^6 cells/ml), read-out: MIC

SMILES	MIC (M. morganii T-216) [µg/mL]	MIC (P. mirabilis T-111) [µg/mL]	MIC (E. coli TK-111) [µg/mL]	MIC (E. coli NIHJ) [µg/mL]	MIC (S. marcescens W-134) [µg/mL]	MIC (C. freundii N-7; [2]) [µg/mL]	MIC (K. pneumoniae Y-4*; [3]) [µg/mL]	MIC (P. aeruginosa GN-918*; [4]) [µg/mL]	MIC (C. freundii N-7; N7, 20 h) [µg/mL]	MIC (K. pneumoniae Y-4*; 20 h) [µg/mL]	MIC (P. aeruginosa GN-918*; GN918, 20 h) [µg/mL]	LD50 [1] [mg/kg]
CC1COc2c(C3(N)CC3)c(F)cc3c(=O)c(C(=O)O)cn1c23.Cl (stereo not shown) [Test Compound 1, 10-(1-Aminocyclopropyl)-9-fluoro-3-methyl-7-oxo-2,3-dihydro-7H-pyrido[1,2,3-de][1,4] benzoxazine-6carboxylic acid hydrochloride]	≤ 0.05	0.1	≤ 0.05	≤ 0.05	0.1	≤ 0.05	0.2	0.2	–	–	–	–
CC1COc2c(N3CCN(C)CC3)c(F)cc3c(=O)c(C(=O)O)cn1c23 (racemic) [Control compd., (±)9-Fluoro-2,3-dihydro-3-methyl-10-(4-methyl-1-piperazinyl)-7-oxo-7H-pyrido[1,2,3-de][1,4]benzoxazine-6carboxylic acid, reference compound]	0.1 (≈ 0.277 µM)	0.39 (≈ 1.08 µM)	≤ 0.05	≤ 0.05	0.2 (≈ 0.553 µM)	–	–	3.13 (≈ 8.66 µM)	0.39 (≈ 1.08 µM)	0.39 (≈ 1.08 µM)	–	–
NC1(c2c(F)cc3c(=O)c(C(=O)O)cn4c3c2OCC42CC2)CC1 [Test Compound 9, 10'-(1-Aminocyclopropyl)-9'-fluoro-7+-oxospiro{cyclopropane-1,3'(2'H)-[7H]-pyrido[1,2,3-de][1,4]benzoxazine}-6'-carboxylic acid hydrochloride]	0.1	0.39	≤ 0.05	0.1	0.2	0.2	–	–	–	0.39	0.39	–
CC1COc2c(C3(N)CC3)c(F)c(N)c3c(=O)c(C(=O)O)cn1c23.Cl (stereo not shown) [Test Compound 2, 8-Amino-10-(1-aminocyclopropyl)-9-fluoro-3-methyl-7-oxo-2,3-dihydro-7H-pyrido[1,2,3-de][1,4]-benzoxazine-6-carboxylic acid hydrochloride]	0.1	0.39	≤ 0.05	≤ 0.05	0.2	0.1	–	0.78	–	0.39	–	–
CNC1(c2c(F)cc3c(=O)c(C(=O)O)cn4c3c2OC[C@@H]4C)CC1.Cl [Test Compound 11, (S)-10-[1-(N-methylamino)cyclopropyl]-9-fluoro-3-methyl-7-oxo-2,3-dihydro-7H-pyrido[1,2,3-de][1,4]-benzoxazine-6-carboxylic acid hydrochloride]	≤ 0.05	0.1	≤ 0.05	≤ 0.05	0.1	0.1	0.1	0.2	–	–	–	–
Br.C=C1COc2c(C3(N)CC3)c(F)cc3c(=O)c(C(=O)O)cn1c23 [Test Compound 8, 10-(1-Aminocyclopropyl)-9-fluoro-3-methylene-7-oxo-2,3-dihydro-7H-pyrido[1,2,3-de][1,4]benzoxazine-6-carboxylic acid hydrobromide]	0.1	0.39	≤ 0.05	0.1	0.2	0.1	0.2	–	–	–	0.39	–
CC1COc2c(C3(N)CC3)c(F)c(F)c3c(=O)c(C(=O)O)cn1c23.Cl (stereo not shown) [Test Compound 3, 10-(1-Aminocyclopropyl)-8,9-difluoro-3-methyl-7-oxo-2,3-dihydro-7H-pyrido[1,2,3-de][1,4]benzoxazine-6-carboxylic acid hydrochloride]	≤ 0.05	0.2	≤ 0.05	≤ 0.05	0.2	0.2	–	0.78	–	0.39	–	–
Cl.NC1(c2c(F)cc3c(=O)c(C(=O)O)cn4c3c2OCC4CF)CC1 (stereo not shown) [Test Compound 6, 10-(1-Aminocyclopropyl)-9-fluoro-3-fluoromethyl-7-oxo-2,3-dihydro-7H-pyrido[1,2,3-de][1,4]benzoxazine-6-carboxylic acid hydrochloride]	≤ 0.05	0.1	≤ 0.05	≤ 0.05	0.1	0.1	0.2	0.2	–	–	–	–
CC[C@H]1COc2c(C3(N)CC3)c(F)cc3c(=O)c(C(=O)O)cn1c23.Cl [Test Compound 7, (S)-10-(1-aminocyclopropyl)-3-ethyl-9-fluoro-7-oxo-2,3-dihydro-7H-pyrido[1,2,3-de][1,4]benzoxazine-6carboxylic acid hydrochloride]	≤ 0.05	0.2	≤ 0.05	≤ 0.05	0.1	0.1	0.2	0.2	–	–	–	–
C[C@H]1COc2c(C3(N)CC3)c(F)cc3c(=O)c(C(=O)O)cn1c23.Cl [Test Compound 5, (S)-10-(1-aminocyclopropyl)-9-fluoro-3-methyl-7-oxo-2,3-dihydro-7H-pyrido[1,2,3-de][1,4]benzoxazine-6-carboxylic acid hydrochloride]	≤ 0.05	≤ 0.05	≤ 0.05	≤ 0.05	≤ 0.05	≤ 0.05	≤ 0.05	0.1	–	–	–	> 1000
CC1COc2c(C3(N)CC3)c(F)c(O)c3c(=O)c(C(=O)O)cn1c23.Cl (stereo not shown) [Test Compound 4, 10-(1-Aminocyclopropyl)-9-fluoro-8-hydroxy-3-methyl-7-oxo-2,3-dihydro-7H-pyrido[1,2,3-de][1,4]-benzoxazine-6-carboxylic acid hydrochloride]	≤ 0.05	0.2	≤ 0.05	≤ 0.05	0.2	–	–	0.78	0.39	0.39	–	–
CC1CC1(N)c1c(F)cc2c(=O)c(C(=O)O)cn3c2c1OC[C@@H]3C.Cl (stereo partly drawn) [Test Compound 10, (S)-10-(1-amino-2-methylcyclopropyl)-9-fluoro-3-methyl-7-oxo-2,3-dihydro-7H-pyrido[1,2,3-de][1,4]-benzoxazine-6-carboxylic acid hydrochloride]	≤ 0.05	0.2	≤ 0.05	≤ 0.05	0.1	≤ 0.05	0.2	0.2	–	–	–	–

Source: US4990508A, “Pyridone carboxylic acid derivatives and salts thereof, process for producing the same and antibacterial agents comprising the same” (Toyama Chemical Co., Ltd., priority 1988, dated 1991)
